Assay results published in ChEMBL document CHEMBL5625266, “Design, synthesis and biological evaluation of novel cyclic malonamide derivatives as selective RIPK1 inhibitors” (Bioorg Med Chem Lett, 2024).

Experiments:
[1] = tested on: U-937; assay: Inhibition of necroptosis in human U-937 cells; format: functional, cell-based
[2] = molecular target: T1, Receptor-interacting serine/threonine-protein kinase 1 (Homo sapiens, UniProt Q13546); assay: Inhibition of human RIPK1 assessed as inhibition constant by ADP-Glo Kinase assay
T1 sequence (Q13546 whole entry): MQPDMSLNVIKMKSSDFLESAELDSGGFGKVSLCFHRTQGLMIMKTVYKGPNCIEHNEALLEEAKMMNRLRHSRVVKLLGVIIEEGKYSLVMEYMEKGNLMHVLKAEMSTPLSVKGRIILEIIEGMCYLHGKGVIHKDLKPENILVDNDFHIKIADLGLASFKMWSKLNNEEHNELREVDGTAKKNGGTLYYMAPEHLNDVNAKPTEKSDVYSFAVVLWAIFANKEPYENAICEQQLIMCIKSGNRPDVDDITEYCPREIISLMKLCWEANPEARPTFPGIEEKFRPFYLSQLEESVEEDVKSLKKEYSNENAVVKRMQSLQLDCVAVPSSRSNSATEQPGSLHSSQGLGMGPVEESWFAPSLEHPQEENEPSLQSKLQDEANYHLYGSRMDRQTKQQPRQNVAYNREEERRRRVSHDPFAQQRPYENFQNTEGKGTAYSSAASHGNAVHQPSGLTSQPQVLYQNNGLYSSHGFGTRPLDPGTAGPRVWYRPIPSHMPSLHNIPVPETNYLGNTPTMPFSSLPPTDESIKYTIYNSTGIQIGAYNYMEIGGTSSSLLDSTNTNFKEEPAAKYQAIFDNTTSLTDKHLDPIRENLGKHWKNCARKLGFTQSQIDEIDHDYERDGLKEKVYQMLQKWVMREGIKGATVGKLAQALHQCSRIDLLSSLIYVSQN

[3] = molecular target: Mitogen-activated protein kinase kinase kinase 9 (Homo sapiens) (UniProt P80192); assay: Inhibition of MLK1 (unknown origin) at 10 uM relative to control
[4] = molecular target: T2, Receptor-interacting serine/threonine-protein kinase 1 (Homo sapiens) (UniProt Q13546); assay: Inhibition of RIPK1 (unknown origin) at 1 uM relative to control
T2 sequence (whole entry): T1 sequence (Q13546 whole entry)

[5] = Stability of the compound in PBS at pH 7.4 measured after 24 hrs; format: physicochemical; conditions: read-out: Stability

Mitogen-activated protein kinase kinase kinase 9 (Homo sapiens), sequence (P80192 whole entry, looked up): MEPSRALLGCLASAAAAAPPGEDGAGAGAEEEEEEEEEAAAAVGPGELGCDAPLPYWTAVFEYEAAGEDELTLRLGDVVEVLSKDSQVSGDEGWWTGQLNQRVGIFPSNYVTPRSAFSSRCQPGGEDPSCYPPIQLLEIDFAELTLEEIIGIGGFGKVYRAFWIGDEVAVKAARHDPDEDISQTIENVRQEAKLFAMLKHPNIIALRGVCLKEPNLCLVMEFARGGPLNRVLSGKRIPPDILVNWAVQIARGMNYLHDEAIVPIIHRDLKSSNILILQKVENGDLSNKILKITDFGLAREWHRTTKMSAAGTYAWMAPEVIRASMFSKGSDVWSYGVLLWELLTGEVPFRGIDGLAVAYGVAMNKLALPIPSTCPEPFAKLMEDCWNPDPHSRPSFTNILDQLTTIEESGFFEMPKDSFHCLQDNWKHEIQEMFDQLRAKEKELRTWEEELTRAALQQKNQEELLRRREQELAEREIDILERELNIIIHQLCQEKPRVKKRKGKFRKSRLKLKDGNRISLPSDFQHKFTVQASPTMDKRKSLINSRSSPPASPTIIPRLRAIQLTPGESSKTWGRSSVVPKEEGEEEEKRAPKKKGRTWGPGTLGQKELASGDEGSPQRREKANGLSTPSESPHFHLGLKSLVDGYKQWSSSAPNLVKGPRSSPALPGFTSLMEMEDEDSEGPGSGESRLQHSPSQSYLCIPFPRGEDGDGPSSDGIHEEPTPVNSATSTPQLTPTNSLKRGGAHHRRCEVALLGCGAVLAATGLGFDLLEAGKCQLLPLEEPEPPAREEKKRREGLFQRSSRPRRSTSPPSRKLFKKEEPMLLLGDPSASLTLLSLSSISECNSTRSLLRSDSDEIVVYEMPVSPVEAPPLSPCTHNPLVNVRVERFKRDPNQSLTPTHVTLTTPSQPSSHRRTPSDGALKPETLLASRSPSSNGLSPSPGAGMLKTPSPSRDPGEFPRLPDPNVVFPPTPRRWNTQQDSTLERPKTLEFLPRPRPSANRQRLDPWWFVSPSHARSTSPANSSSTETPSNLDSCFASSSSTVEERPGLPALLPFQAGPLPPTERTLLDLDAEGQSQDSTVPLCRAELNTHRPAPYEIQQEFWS

Compound `CN1C(=O)[C@@H](NC(=O)c2n[nH]c(Cc3ccccc3)n2)COc2ccccc21` [GSK2982772] has an IC50 [1] of 0.00589 µM.
Compound `COc1cc2c(cn1)N(C)C(=O)[C@@H](C(=O)Nc1ncc(Cc3ccccc3)s1)CC2` has a Ki [2] of 0.0219 µM and an IC50 [1] of 0.0631 µM.
`CN1C(=O)C(C(=O)Nc2cn(Cc3ccccc3)cn2)CCc2ccccc21` (stereo not drawn) showed a Ki [2] of 0.135 µM.
Compound `CN1C(=O)C(C(=O)Nc2cn(Cc3ccccc3)nn2)CCc2ccccc21` (stereo not drawn) has a Ki [2] of 0.0589 µM and an IC50 [1] of 0.0794 µM.
With `COc1cc2c(cn1)N(C)C(=O)C(C(=O)Nc1ncc(Cc3ccccc3)s1)CC2` (racemic) the Ki [2] was 0.0525 µM and the IC50 [1] was 0.0575 µM.
Compound `COc1cc2c(cn1)N(C)C(=O)[C@H](C(=O)Nc1ncc(Cc3ccccc3)s1)CC2` has a Ki [2] of 1.45 µM and an inhibition [3] of 28%.
`CN1C(=O)C(C(=O)Nc2ncn(Cc3ccccc3)n2)CCc2ccccc21` (stereo not drawn) gave a Ki [2] of 0.0437 µM and an IC50 [1] of 0.0617 µM.
`CN1C(=O)C(C(=O)Nc2nc(Cc3ccccc3)n[nH]2)CCc2ccccc21` (stereo not drawn) gave an inhibition [4] of 22% and a remaining at 24 h [5] of 14%.
`CN1C(=O)C(C(=O)Nc2nnn(Cc3ccccc3)n2)CCc2ccccc21` (stereo not drawn) showed a Ki [2] of 0.0316 µM and an IC50 [1] of 0.0363 µM.
Compound `CN1C(=O)C(C(=O)Nc2cn(Cc3ccccc3)cn2)CCc2ccncc21` (stereo not drawn) has a Ki [2] of 0.794 µM and an IC50 [1] of 0.562 µM.
For `COc1cc2c(cn1)N(C)C(=O)C(C(=O)Nc1cn(Cc3ccccc3)cn1)CC2` (stereo not drawn), the Ki [2] was 0.575 µM and the IC50 [1] was 0.427 µM.
`CN1C(=O)C(C(=O)Nc2cn(Cc3c(F)cccc3F)cn2)CCc2ccccc21` (stereo not drawn) gave a Ki [2] of 0.0562 µM and an IC50 [1] of 0.148 µM.
Compound `CN1C(=O)C(C(=O)Nc2ncc(Cc3ccccc3)s2)CCc2ccccc21` (stereo not drawn) has a Ki [2] of 0.00191 µM and an IC50 [1] of 0.0112 µM.
`CN1C(=O)C(C(=O)Nc2ncc(Cc3ccccc3)o2)CCc2ccccc21` (stereo not drawn) showed a Ki [2] of 0.2 µM and an IC50 [1] of 0.891 µM.
Work on `CN1C(=O)C(C(=O)Nc2cn(Cc3ccccc3)cn2)CCc2cccnc21` (stereo not drawn) yielded a Ki [2] of 0.214 µM and an IC50 [1] of 1.1 µM.
